Reference: patent US20080221074A1, “Drug Screen and Treatment Method” (priority 2006, published 2008)

Tested on: passive collagen-induced arthritis
Assay: passive collagen induced arthritis (anti-type II collagen antibodies)
Assay type: in vivo, DBA/1 mice
Details: 40 mg/kg/day oral gavage
Source text: The capacity of formula 1 compounds to affect the course of arthritis in a passive collagen induced arthritis model of arthritis was examined essentially as previously described (E. Simelyte et al., Arthritis & Rheumatism, 52(6):1876-1884, 2005; Z. Han et al. Arthritis & Rheumatism 46(3):818-823, 2002; H. Miyahara et al., Clin. Immunol. Immunopathol., 69(1):69-76 1993). In this protocol, passive collagen-induced arthritis was induced in DBA/1 mice by administering anti-type II collagen antibodies, which induced an immune response against joint tissue in the animals. […] The severity of arthritis was assessed using a semiquantitative clinical scoring system. Groups of 8 animals per group were treated with 17α-ethynylandrost-5-ene-3β,7β,17β-triol at 40 mg/kg/day for 14 days or vehicle for 14 days by oral gavage. The vehicle was 30% cyclodextrin-sulfobutylether in water and the drug solution was vehicle with drug at 20 mg/mL.
The animals were examined by measuring ankle thickness and arthritis score (4-point/paw) with a higher score indicating a more severe arthritis. The experiment was terminated after about 14 days, and histology and gene expression measurements were performed. […] A semi-quantitative scoring system was used to access synovial inflammation, extraarticular inflammation, erosion and proteogylcan loss. […]

C#C[C@]1(O)CC[C@H]2[C@@H]3[C@@H](O)C=C4C[C@@H](O)CC[C@]4(C)[C@H]3CC[C@@]21C [17α-ethynylandrost-5-ene-3β,7β,17β-triol]
maximum clinical score (day 7): 5.1 | clinical score at day 14 (end of protocol): 4.1
